Reference: patent publication US20150216865A1, “METHODS OF TREATING A BRUTON'S TYROSINE KINASE DISEASE OR DISORDER” (Celgene Avilomics Research, Inc., priority 2012, published 2015)
Where two headings read alike, the source gives them in different places.

What was measured:
Format in all cases: in vivo
male NOD mice = assay: NOD mouse model of Sjogren's syndrome, glycaemia / incidence of diabetes
Experimental: Non-Obese Diabetic Mouse (NOD) Model of Sjogren's Syndrome. Male Non Obese Diabetic (NOD) mice from the KWS BioTest NOD colony and male BALB/c mice were randomly allocated to experimental groups and allowed to acclimatise for one week prior to the beginning of the study. From six weeks of age, animals were treated according to the administration schedule in Table 5, below. Each group consisted of n=12 animals. The administration volume was 15 ml/kg from 6-12 weeks of age. The administration volume was then decreased to 10 ml/kg from 13-20 weeks of age. The vehicle was distilled water pH 3.0-3.5 for Group 7. […] Glycaemia. From fourteen weeks of age, animals were monitored weekly for signs of hyperglycaemia. A blood sample was taken from a superficial vein and the blood glucose level was measured using Free Style Optium glucose test strips (Abbott) and a Boots glucose reader. Glycaemia. Blood glucose was monitored once per week from 14 weeks of age. Animals with glycaemia equal to or greater than 11 mM on two consecutive weekly readings were considered diabetic.

[1] = test system: collagen-induced arthritis Dba1 mouse model; assay: Established collagen induced arthritis model (clinical score, histopathology, body weight); conditions: for reduction of clinical signs of disease (inhibition of disease): established CIA
Experimental: Established Collagen Induced Arthritis Model: Experiments were carried out at Bolder Biopath, Boulder, Colo. All experiments were carried out in compliance with regulations of the Institutional Animal Care and Use Committee and were conducted in accordance with principles and procedures dictated by the highest standards of humane animal care. […] On study days 25-27, onset of arthritis occurred, and mice were randomized into treatment groups (10/treatment group, 4/group for normal). […] Randomization into each group was done after swelling was obviously established in at least one paw, and attempts were made to assure approximately equal mean scores across the groups at the time of enrollment. […] Treatment continued daily (QD at 24 h intervals) through arthritis day 14.

Btk = Btk (Homo sapiens, UniProt Q06187); assay: Clinical single dose study, Btk occupancy in enriched B cells (covalent probe ELISA)
Experimental: Btk Target Site Occupancy ELISA: An ELISA method for the detection of free uninhibited Btk in mouse, rat, dog, monkey, and human lysates was developed at Celgene Avilomics Research and a validation of this method in human B cell lysate was performed by a CLIA Certified laboratory (Cambridge Biomedical Laboratories, Boston, Mass.) The parameters that were assessed included: accuracy, linearity, dilution, precision (intra and inter-assay), stability, reference range, freeze-thaw cycles, reportable range, specificity, sensitivity, and carryover. […] Standards and samples were transferred to a streptavidin-coated 96-well ELISA plate and mixed while shaking for 1 h at room temperature. […] After wash, goat α-mouse-HRP (1:5000 dilution in PBS+0.05% Tween-20+0.5% BSA) was added and incubated for 1 h at room temperature. The ELISA was developed with addition of tetramethyl benzidine (TMB) followed by Stop Solution and read at OD 450 nm.
Clinical Study: A double blind, placebo-controlled, ascending single dose, randomized study in normal healthy human volunteers was conducted at a single clinical research unit in accordance with Declaration of Helsinki principles. Informed consent statements were obtained from all subjects prior to inclusion in the study. Subjects were admitted to the unit 1 day before dosing and discharged 96 h after dosing.
Isolation of Enriched B Lymphocyte Population from Human Healthy Volunteers: 21 mL of human whole blood was collected from each subject at each time point into BD® Vacutainer® CPT Cell Preparation Tubes containing sodium heparin. […] Isolated cells were harvested into a clean 50 mL conical tube that was pooled by subject. […] Cell suspensions were diluted in 1 mL of red blood cell lysis buffer for 3 minutes at room temperature. […] The lysates were stored frozen at ≦−70° C. until Btk target site occupancy analysis by ELISA.

Sequence of Btk (Q06187 whole entry): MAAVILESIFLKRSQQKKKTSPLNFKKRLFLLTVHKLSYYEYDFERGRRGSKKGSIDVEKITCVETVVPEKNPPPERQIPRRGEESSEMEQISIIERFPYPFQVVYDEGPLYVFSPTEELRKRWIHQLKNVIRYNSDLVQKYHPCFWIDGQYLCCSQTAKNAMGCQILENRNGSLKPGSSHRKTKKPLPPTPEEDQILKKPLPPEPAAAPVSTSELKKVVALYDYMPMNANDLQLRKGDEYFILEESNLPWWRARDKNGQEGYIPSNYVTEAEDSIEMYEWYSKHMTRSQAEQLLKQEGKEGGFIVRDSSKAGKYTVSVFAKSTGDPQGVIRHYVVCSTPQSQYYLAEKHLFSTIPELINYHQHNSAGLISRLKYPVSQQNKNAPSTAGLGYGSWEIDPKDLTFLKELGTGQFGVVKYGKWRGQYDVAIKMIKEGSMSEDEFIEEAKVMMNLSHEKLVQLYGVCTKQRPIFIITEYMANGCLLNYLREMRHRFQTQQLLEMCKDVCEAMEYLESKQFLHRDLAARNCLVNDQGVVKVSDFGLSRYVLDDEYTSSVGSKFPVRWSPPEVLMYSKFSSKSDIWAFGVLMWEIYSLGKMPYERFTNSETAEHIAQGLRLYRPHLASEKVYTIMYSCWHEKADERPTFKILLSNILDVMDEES

SMILES: C=CC(=O)Nc1cccc(Nc2nc(Nc3ccc(OCCOC)cc3)ncc2F)c1 [Compound 1 besylate, N-(3-(5-fluoro-2-(4-(2-methoxyethoxyl)phenylamino)pyrimidin-4-ylamino)phenyl)acrylamide besylate]
- Incidence of Diabetes (male NOD mice; 0.16 mg/kg ad libitum, age 18 weeks): 8% (1/12)
- Incidence of Diabetes (male NOD mice; 0.16 mg/kg ad libitum, age 19 weeks): 17% (2/12)
- Incidence of Diabetes (male NOD mice; 0.16 mg/kg ad libitum, age 20 weeks): 17% (2/12)
- Incidence of Diabetes (male NOD mice; 10 mg/kg SID, age 18 weeks): 17% (2/12)
- Incidence of Diabetes (male NOD mice; 10 mg/kg SID, age 19 weeks): 17% (2/12)
- Incidence of Diabetes (male NOD mice; 10 mg/kg SID, age 20 weeks): 18% (2/11)
- Incidence of Diabetes (male NOD mice; 30 mg/kg SID, age 18 weeks): 0
- Incidence of Diabetes (male NOD mice; 30 mg/kg SID, age 19 weeks): 0
- Incidence of Diabetes (male NOD mice; 30 mg/kg SID, age 20 weeks): 0
- Incidence of Diabetes (male NOD mice; 50 mg/kg BID, age 18 weeks): 0
- Incidence of Diabetes (male NOD mice; 50 mg/kg BID, age 19 weeks): 0
- Incidence of Diabetes (male NOD mice; 50 mg/kg BID, age 20 weeks): 0
- Incidence of Diabetes (male NOD mice; 100 mg/kg SID, age 18 weeks): 0
- Incidence of Diabetes (male NOD mice; 100 mg/kg SID, age 19 weeks): 0
- Incidence of Diabetes (male NOD mice; 100 mg/kg SID, age 20 weeks): 0
- reduction of clinical signs of disease (inhibition of disease) ([1]; 3 mg/kg PO QD): 50%
- reduction of clinical signs of disease (inhibition of disease) ([1]; 10 mg/kg PO QD): 85%
- inhibition of histopathologic signs of disease (six joints) ([1]; 30 mg/kg): 96%
- reduction of clinical signs of disease (inhibition of disease) ([1]; 30 mg/kg PO QD): 95%
- body weight loss associated with severity of disease ([1]; all three dose levels (3, 10, 30 mg/kg)): prevented the loss in body weight
- receptor occupancy at 2 mg/kg (Btk; 2 mg/kg, 4 hours, read-out: average cohort Btk occupancy (maximal)): > 97%
- time complete or near-complete Btk occupancy was sustained (Btk; 2.0 mg/kg, all 6 subjects): 8 to 24 h
- receptor occupancy at 2 mg/kg (Btk; 2.0 mg/kg, within 4 hours, read-out: Btk occupancy, 5 of 6 subjects): > 98%
- receptor occupancy at 2 mg/kg (Btk; 2.0 mg/kg, within 4 hours, read-out: Btk occupancy, 6th subject): 84%
- average Btk re-synthesis rate (Btk; after single oral 2.0 mg/kg): 3.0 pg Btk/ug protein/hour
- free Btk protein levels recovered, % of pre-dose values (Btk; within 96 hours): ~75%
